Data as given in patent US12246022B2, “Compositions and methods for treating, preventing or reversing age associated inflammation and disorders” (BROWN UNIVERSITY, priority 2019, dated 2025).
Read-outs that look alike come from different tables or passages of the source.

Columns and labels:
L1HS sequences = assay: L1 sequence abundance (copy number) by TaqMan qPCR in senescent fibroblasts; assay type: cell-based, human; details: LF1, IMR90, W138 fibroblasts, 5 μM in medium, 4 months in senescence
Method: The ABI ViiA 7 instrument (Applied Biosystems) was used for all experiments. qPCR of DNA was performed using the TaqMan system (Applied Biosystems) as described by Coufal et al. (2009).^64 […] of purified genomic DNA was used with the indicated primers (see Table 1). Reverse transcription qPCR (RT-qPCR) of RNA was performed using the SYBR Green system (Applied Biosystems). Polyadenylated RNA was used in all experiments assessing transcription of L1 elements, and total RNA was used for all other genes. Total RNA was harvested using the Trizol reagent (Invitrogen). Poly(A) RNA was isolated from total RNA using the NEBNext Poly(A) mRNA Magnetic Isolation Module (New England Biolabs). […] Effectiveness of the DNase digestion was assessed using controls that omitted the RT enzyme.
Primer sets 1 to 5 (Table 1, amplicons A to E in FIG. 1B) to human L1 were designed to preferentially amplify elements of the human-specific L1 HS and evolutionarily recent primate-specific L1 PA(2-6) subfamilies, as follows. […] Sequences of primers corresponding to a consensus of all the murine IFN alpha family genes, as well as to the IFNB1 gene, were obtained from the publication by Gautier et al.^71 For quantifying relative L1 genomic copy number (human cells), the TaqMan multiplex method developed by Coufal et al. (2009)^72 was used. […]

IFN-I response = IFN-I response in senescent and 3X human fibroblasts (RT-qPCR, ELISA, immunoblotting); assay type: cell-based; details: LF1 and IMR90, 5 μM
Source text: (§1) To obtain replicatively senescent (RS) cells, LF1 cultures were serially propagated until proliferation ceased. At each passage, after reaching 80% confluence cells were trypsinized and diluted 1:4. […] In early passage cultures, the time between passages is constant at approximately 3 days. […] At this point, after reaching 80% confluence, the cells were replated at 1:2 dilution, and this time was designated as the last passage (point A in FIG. 2A). […] Under this experimental regimen, the majority of the cells in the culture enter senescence within a 3-4 weeks window centered roughly around the time of last passage (grey bar in FIG. 2A). At point B (4 weeks), the cultures were trypsinized and replated as described^60 to eliminate a small fraction of persisting contact-inhibited cells. Cultures were again replated at point C (8 weeks).
Oncogene-induced senescence (OIS) was elicited by infecting proliferating LF1 cells with pLenti CMV RasV12 Neo (Addgene plasmid #22259). Generation of lentiviral particles and the infection procedure are described below. At the end of the infection, cells were reseeded at 15-20% confluency and selected with G418 (250 μg/ml) maintained continuously until the end of the experiment Medium was changed every 3 days until the cultures were harvested at the indicated time points. Stress-induced premature senescence (SIPS) was elicited by […] irradiation with 20 Gy given at a rate of 87 cGy/min in one fraction using a cesium-137 gamma source (Nordion Gammacell 40). Cells were 15-20% confluent at the time of irradiation. Medium was changed immediately after irradiation, and at 3-day intervals thereafter. […]
The ABI ViiA 7 instrument (Applied Biosystems) was used for all experiments. qPCR of DNA was performed using the TaqMan system (Applied Biosystems) as described by Coufal et al. (2009).^64 […] of purified genomic DNA was used with the indicated primers (see Table 1). […] Effectiveness of the DNase digestion was assessed using controls that omitted the RT enzyme. […]

SASP response = assay: Senescence entry and SASP gene expression in human fibroblasts (RT-qPCR); assay type: cell-based; details: LF1, 5 μM
Source text: as §1
The ABI ViiA 7 instrument (Applied Biosystems) was used for all experiments. qPCR of DNA was performed using the TaqMan system (Applied Biosystems) as described by Coufal et al. (2009).^64 […] of purified genomic DNA was used with the indicated primers (see Table 1). Reverse transcription qPCR (RT-qPCR) of RNA was performed using the SYBR Green system (Applied Biosystems). […] Effectiveness of the DNase digestion was assessed using controls that omitted the RT enzyme.

[1] = human plasma PK, oral dose 0.5-30 mg; cited from earlier work
[2] = Table 13 Comparative Studies; cited from earlier work
human LINE-1 [3] = assay: Islatravir Inhibitory Quotient (IQ) estimate for human LINE-1 in PBMC and brain; details: for Human LINE-1 IQ C168 hr, PBMC, single dose / Human LINE-1 IQ Cavg (ss), PBMC, q.d.: EFdA-TP EC50 = 316 nM; for Human LINE-1 IQ C168 hr, Brain, single dose / Human LINE-1 IQ Cavg (ss), Brain, q.d.: assume Br./plasma = 0.25
[4] = cited from earlier work
human LINE-1 [5] = assay: Human LINE-1 retrotransposition assay, related experiments with islatravir (pYX017, HeLa cells, Tables 12 and 13); assay type: cell-based; details: for IC50: Homo sapiens
Method: In related experiments, islatravir and other compounds were tested for inhibition of retrotransposition activity of human LINE-1 in HeLa cells according to the following procedure.
HeLa cervical cancer cells were cultivated at 37° C. in a humidified 5% CO2 incubator in Dulbecco's Modified Eagle's Medium (DMEM)—high glucose, with 4500 mg/L glucose, L-glutamine, sodium pyruvate and sodium bicarbonate (Sigma), supplemented with 10% of heat inactivated fetal bovine serum (Thermo Fisher).
Assays were performed using reporter plasmid pYX017 as described (Xie, et al., 2011) with several modifications. The reporter assay was performed in 96-well white optical bottom plates. HeLa cells were seeded in wells 24 h prior to transfection and compound treatment so that cells were approximately 30% confluent on the day of transfection. Different cell plating densities were tested and a density of 2×10^3 cells was determined to be optimal.
Compounds were resuspended in DMSO. Serial dilutions (1:3) were prepared in DMSO. Medium containing different concentrations of the compounds were prepared by adding 2 μl of the compound dilution to 1 ml of the culture medium. The final concentration of DMSO in the medium was 0.2%.
FuGENE® HD transfection reagent (Promega, E2311, Lot 382574 and Lot 397842) was used to transfect the plasmids into the cells. The transfection reagent: DNA mixture was prepared in OpiMEM (Thermo Fisher) according to manufacturer's instructions. Different ratios of transfection reagent to DNA were tested and a ratio of 3:1 was determined to be optimal. Culture medium was removed from the cells and discarded. The transfection reagent: DNA mixture (5 μl) was mixed with the compound containing medium (100 μl/well) and this was added onto the cells of each well. Cells were incubated at 37° C./5% CO2 for different incubation time. A 72 h incubation time was determined to be optimal.
Luciferase reporter activity was quantified with the Dual-Luciferase® Reporter Assay System (Promega) according to manufacturer's instructions for multiwell plates except that cells were lysed directly on the multiwell plate with 30 μl of the passive lysis buffer (PLB) for 20 min at room temperature, with gentle shaking to ensure complete cell lysis.
Firefly and Renilla luciferase signals were measured using a SpectraMax i3x Multi-Mode Microplate Reader. Integration times of 100 ms and 10 ms were used to measure the Firefly and Renilla signals respectively. Relative L1 activity is calculated as Firefly/Renilla *1000 or Firefly/Renilla *10,000. Dose response inhibition data were fit to a four parameter logistic equation using non-linear regression (using Graphpad Prism 8), to determine IC50 values for each inhibitor.

HIV WT = details: Grobler et al. 2019; read-out: HIV WT IC50; cited from earlier work
[6] = daily dose of 2 mg, steady state

**Q.** What does the source list for `Nc1ncnc2c1ncn2CCOCP(=O)(O)O` [Adefovir]?
**A.** senescence-induced increase of L1 copy number (L1HS sequences): significantly prevented this increase; interferon gene expression (IFN-α, IFN-β1) in senescent cells (IFN-I response): significantly reduced; SASP gene expression (IL-6, MMP3) in senescent cells (SASP response): significantly decreased

**Q.** For `C#C[C@]1(CO)O[C@@H](n2cnc3c(N)nc(F)nc32)C[C@@H]1O` [Islatravir, 2′-deoxy-4′-ethynyl-2-fluoroadenosine], which oral clearance [1] is on record?
**A.** Its oral clearance is 31 to 45 L/h.

**Q.** And the huCSF/Plasma [2]?
**A.** The huCSF/Plasma was 0.25.

**Q.** What about the “Human LINE-1 IQ C168 hr, PBMC, single dose” value (“Human LINE-1 IQ C168 hr, PBMC” for short) (human LINE-1 [3]; Dose 0.5 mg) of the same compound?
**A.** The value was 1.84.

**Q.** What about the “Human LINE-1 IQ Cavg (ss), PBMC, q.d.” value (human LINE-1 [3]; Dose 0.5 mg) of the same compound?
**A.** The value was 23.41.

**Q.** What about the “Human LINE-1 IQ C168 hr, Brain, single dose” value (“Human LINE-1 IQ C168 hr, Brain” below) (human LINE-1 [3]; Dose 0.5 mg) of the same compound?
**A.** The value was 0.46.

**Q.** And the “Human LINE-1 IQ Cavg (ss), Brain, q.d.” value (human LINE-1 [3]; Dose 0.5 mg)?
**A.** The value was 5.85.

**Q.** What about the “Human LINE-1 IQ C168 hr, PBMC” value (human LINE-1 [3]; Dose 1 mg) of the same compound?
**A.** The value was 2.61.

**Q.** What about the “Human LINE-1 IQ Cavg (ss), PBMC, q.d.” value (human LINE-1 [3]; Dose 1 mg) of the same compound?
**A.** The value was 39.79.

**Q.** And the “Human LINE-1 IQ C168 hr, Brain” value (human LINE-1 [3]; Dose 1 mg)?
**A.** Its value is 0.66.

**Q.** What about the “Human LINE-1 IQ Cavg (ss), Brain, q.d.” value (human LINE-1 [3]; Dose 1 mg) of the same compound?
**A.** Its value is 9.95.

**Q.** What about the “Human LINE-1 IQ C168 hr, PBMC” value (human LINE-1 [3]; Dose 2 mg) of the same compound?
**A.** Its value is 3.00.

**Q.** And the “Human LINE-1 IQ Cavg (ss), PBMC, q.d.” value (human LINE-1 [3]; Dose 2 mg)?
**A.** The value was 50.54.

**Q.** What about the “Human LINE-1 IQ C168 hr, Brain” value (human LINE-1 [3]; Dose 2 mg) of the same compound?
**A.** Its value is 0.75.

**Q.** What about the “Human LINE-1 IQ Cavg (ss), Brain, q.d.” value (human LINE-1 [3]; Dose 2 mg) of the same compound?
**A.** Its value is 12.64.

**Q.** What about the “Human LINE-1 IQ C168 hr, PBMC” value (human LINE-1 [3]; Dose 10 mg) of the same compound?
**A.** Its value is 15.64.

**Q.** And the “Human LINE-1 IQ Cavg (ss), PBMC, q.d.” value (human LINE-1 [3]; Dose 10 mg)?
**A.** The value was 295.15.

**Q.** And the “Human LINE-1 IQ C168 hr, Brain” value (human LINE-1 [3]; Dose 10 mg)?
**A.** The value was 3.92.

**Q.** What about the “Human LINE-1 IQ Cavg (ss), Brain, q.d.” value (human LINE-1 [3]; Dose 10 mg) of the same compound?
**A.** Its value is 73.79.

**Q.** What about the “Human LINE-1 IQ C168 hr, PBMC” value (human LINE-1 [3]; Dose 30 mg) of the same compound?
**A.** The value was 76.88.

**Q.** What about the “Human LINE-1 IQ Cavg (ss), PBMC, q.d.” value (human LINE-1 [3]; Dose 30 mg) of the same compound?
**A.** The value was 915.31.

**Q.** What about the “Human LINE-1 IQ C168 hr, Brain” value (human LINE-1 [3]; Dose 30 mg) of the same compound?
**A.** Its value is 19.22.

**Q.** And the “Human LINE-1 IQ Cavg (ss), Brain, q.d.” value (human LINE-1 [3]; Dose 30 mg)?
**A.** The value was 228.83.

**Q.** And the “IQ for human LINE-1 in PBMCs” value (human LINE-1 [3]; [6])?
**A.** The value was 51.

**Q.** What about the “IQ for human LINE-1 in brain” value (human LINE-1 [3]; [6]) of the same compound?
**A.** Its value is 13.

**Q.** And the “Plasma-Brain Kapp” value ([4]; non-human primate)?
**A.** Its value is 0.25.

**Q.** And the “blood brain barrier penetration” value ([4]; single oral doses, Rhesus macaque)?
**A.** The value was “penetrated the blood brain barrier (BBB)”.

**Q.** What about the “human LINE-1 inhibitor activity compared to the other reverse transcriptase inhibitory drugs tested” value (human LINE-1 [5]; HeLa cells) of the same compound?
**A.** The value was “unexpectedly better human LINE-1 inhibitor activity”.

**Q.** And the IC50 (human LINE-1 [5]; HeLa, Table 13 Comparative Studies, read-out: Human Line-1 IC50)?
**A.** The IC50 was 5 nM.

**Q.** What about the IC50 (human LINE-1 [5]; HeLa, see Table 12, read-out: in vitro IC50 for human LINE-1 in cell-based assay) of the same compound?
**A.** Its IC50 is 1.29 nM.

**Q.** And the IC50 (human LINE-1 [5]; HeLa cells, pYX017, 72 h, n = 3, read-out: Human LINE-1 IC50, Average)?
**A.** Its IC50 is 1.29 nM.

**Q.** What about the IC50 (human LINE-1 [5]; HeLa cells, pYX017, 72 h, read-out: Human LINE-1 IC50, Exp. 3) of the same compound?
**A.** The IC50 was 1.4 nM.

**Q.** And the IC50 (human LINE-1 [5]; HeLa cells, pYX017, 72 h, read-out: Human LINE-1 IC50, Exp.2)?
**A.** Its IC50 is 1.18 nM.

**Q.** What about the IC50 (HIV WT) of the same compound?
**A.** Its IC50 is 0.2 nM.
